Patent publication US10995068B2, “Synthetic sphingolipid-like molecules, drugs, methods of their synthesis and methods of treatment” (The Regents of the University of California, priority 2015, dated 2021)

What was measured:
[1] = Blood chemistry of pDKO mice; assay type: in vivo; conditions: for Alkaline Phosphatase: Means ± SEM, n = 4, in U/L (unit assumed); for Albumin / Globulin / Total Protein: in g/dL (unit assumed); for Blood Urea Nitrogen / Ca^2+ / Cholesterol / P / Total Bilirubin: in mg/dL (unit assumed); for HCO^3−: in mmol/L (unit assumed); for Creatine: unit assumed
Method: In vivo studies. Experiments conducted in mice were performed in accordance with the Institutional Animal Care and Use Committee of University of California, Irvine following a power analysis conducted in consultation with the Biostatistics Shared Resource of Chao Family Comprehensive Cancer Center at UCI. Xenografts were produced by injecting 5 million cells subcutaneously in the flank of 10-16 week-old male or female NSG mice. Prostate isografts were produced in the same manner but in male 6-8 wk old C57BL/6 mice. Once tumors reached 100 mm^3, SH-BC-893 was administered by intraperitoneal (i.p.) injection or oral gavage as indicated. Tumor volume was calculated using the formula, volume (mm^3)=length [mm]×(width [mm])^2×0.52; BLI was measured using an IVIS imaging system (Xenogen). To generate pDKO mice on the C57BL6 background, Pten^flox mice (stock No. 0045597) and p53^flox mice (stock No. 008462) were obtained from the Jackson Laboratory and PB-Cre4 mice (strain #01XF5) were obtained from the NCI-Frederick Mouse Repository. Age-matched cohorts of pDKO males were generated by in vitro fertilization executed with the assistance of the Transgenic Mouse Facility at UC Irvine. Treatment was begun at 6-7 wks of age. […] Tumor samples were processed and imaged by the Pathology Research Services Core Facility at UC Irvine. Blood chemistry was analyzed by IDEXX BioResearch and complete blood counts were performed using a Hemavet hematology system.

[2] = tested on: bound NADH fraction; test: NADH fluorescence lifetime imaging (FLIM); assay type: cell-based; conditions: mimicked amino acid and glucose starvation
Excerpt: Cells adapt to nutrient limitation by increasing oxidative phosphorylation. The relative rate of glycolysis and oxidative phosphorylation can be monitored by measuring the fluorescence lifetime of the reduced form of nicotinamide adenine dinucleotide (NADH). A higher ratio of protein-bound to free NADH (increased lifetime) correlates with increased oxidative phosphorylation in multiple cell types both in vitro and in vivo. Oligomycin and rotenone/antimycin A are molecules known in the field to induce glycolysis, whereas 2-deoxy-glucose (2DG) is an inhibitor of glycolysis and subsequently increases oxidative phosphorylation. Starvation of cells by removing access to glucose and amino acids is also known to increase oxidative phosphorylation. […]
NADH Fluorescence Lifetime Imaging Microscopy (FLIM). […] The excitation wavelength was 740 nm and a dichroic filter (690 nm) was used to separate the fluorescence signal from the laser light. […] The fluorescence was detected by a hybrid detector (HPM-100 Hamamatsu). […] The FLIM system was calibrated during each imaging session by measuring the fluorescence decay of fluorescein with a single exponential of 4.04 nsec. […] Data was processed by the SimFCS software developed at the Laboratory of Fluorescence Dynamics at UCI. […]

[3] = 60 mg/kg, at sacrifice, in U/L (unit assumed)
[4] = 120 mg/kg, at sacrifice, in U/L (unit assumed)

Compound: CCCCCCCCc1ccc([C@H]2CCN[C@@H]2CO)cc1.Cl [Compound 5, (2S,3R)-2-(hydroxymethyl)-3-(4-octylphenyl)Pyrrolidinium chloride]
- Glucose ([1]; 60 mg/kg, at sacrifice): 282 ± 24^
- Alkaline Phosphatase ([1]; 60 mg/kg, at sacrifice): 77 ± 7.8
- Creatine Phosphokinase [1, 3]: 5,340 ± 2366
- Serum Glutamic Oxaloacetic Transaminase (Asp aminotransferase) [1, 3]: 640 ± 136
- Serum Glutamic-Pyruvic Transaminase (Ala aminotransferase) [1, 3]: 78 ± 25
- Albumin ([1]; 60 mg/kg, at sacrifice): 3 ± 0.2
- Globulin ([1]; 60 mg/kg, at sacrifice): 2 ± 0.18
- Total Protein ([1]; 60 mg/kg, at sacrifice): 5 ± 0.4
- Blood Urea Nitrogen ([1]; 60 mg/kg, at sacrifice): 19 ± 1.1
- Ca^2+ ([1]; 60 mg/kg, at sacrifice): 10 ± 0.7
- Cholesterol ([1]; 60 mg/kg, at sacrifice): 134 ± 15.8
- P ([1]; 60 mg/kg, at sacrifice): 11 ± 1.0
- Total Bilirubin ([1]; 60 mg/kg, at sacrifice): 0.1 ± 0
- HCO^3− ([1]; 60 mg/kg, at sacrifice): 20 ± 3.2
- Creatine ([1]; 60 mg/kg, at sacrifice): < 0.2 mg/dL
- Glucose ([1]; 120 mg/kg, at sacrifice): 307 ± 28^
- Alkaline Phosphatase ([1]; 120 mg/kg, at sacrifice): 83 ± 6.2
- Serum Glutamic Oxaloacetic Transaminase (Asp aminotransferase) [1, 4]: 907 ± 171
- Serum Glutamic-Pyruvic Transaminase (Ala aminotransferase) [1, 4]: 91 ± 17.2
- Albumin ([1]; 120 mg/kg, at sacrifice): 3 ± 0.1
- Globulin ([1]; 120 mg/kg, at sacrifice): 2 ± 0.03
- Total Protein ([1]; 120 mg/kg, at sacrifice): 6 ± 0.2
- Blood Urea Nitrogen ([1]; 120 mg/kg, at sacrifice): 23 ± 1.5
- Ca^2+ ([1]; 120 mg/kg, at sacrifice): 10 ± 0.1
- Cholesterol ([1]; 120 mg/kg, at sacrifice): 107 ± 7.5
- P ([1]; 120 mg/kg, at sacrifice): 13 ± 0.1
- Total Bilirubin ([1]; 120 mg/kg, at sacrifice): 0.2 ± 0.03
- HCO^3− ([1]; 120 mg/kg, at sacrifice): 17 ± 2.8
- Creatine ([1]; 120 mg/kg, at sacrifice): < 0.2 mg/dL
- toxicity to the liver or kidneys by blood chemistry at sacrifice ([1]; anti-neoplastic dose): not toxic to the liver or kidneys
- bound NADH fraction [2]: increasing
